Assay results reported in patent US9382203B2, “N-carbamoylmethyl-4-(R)-phenyl-2-pyrrolidinone, method of its preparation and pharmaceutical use” (Joint Stock Company (JSC) “OLAINFARM”, priority 2006, dated 2016).
Marks after values point to notes of the source that are not given here.

What was measured:
Format in all cases: in vivo
male ICR mice [1] = test: Porsolt forced swim test (FST); settings: for Immobility in FST (in words): after preliminary treatment, mice; for Immobilization time: i.p. 100 mg/kg, 1 hour before the test, male ICR mice
male ICR mice [2] = test: Open field test, locomotor activity; settings: for Exploratory activity counts / Vertical activity counts / Horizontal activity counts: male ICR mice
male ICR mice [3] = test: Muscle relaxant activity, chimney test; settings: Mus musculus, ip; i.p. administration in dosages 50; 100; 250 and 500 mg/kg
male ICR mice [4] = test: Muscle relaxant activity, traction test; settings: Mus musculus, ip; i.p. administration in dosages 50; 100; 250 and 500 mg/kg
male ICR mice [5] = test: Muscle relaxant activity, rota rod test; settings: Mus musculus, ip; i.p. administration in dosages 50; 100; 250 and 500 mg/kg
male ICR mice [6] = test: Analgesic effect, hot plate test; settings: Mus musculus, ip; i.p. administration in dosages 50; 100; 250 and 500 mg/kg

Row | SMILES | Immobility in FST (in words) (male ICR mice [1]) | Immobilization time (male ICR mice [1]) | Exploratory activity counts (male ICR mice [2]; 30 min after i.p. 50 mg/kg) | Vertical activity counts (male ICR mice [2]; 30 min after i.p. 50 mg/kg) | Exploratory activity counts (male ICR mice [2]; 60 min after i.p. 50 mg/kg) | Vertical activity counts (male ICR mice [2]; 60 min after i.p. 50 mg/kg) | Exploratory activity counts (male ICR mice [2]; 120 min after i.p. 50 mg/kg) | Vertical activity counts (male ICR mice [2]; 120 min after i.p. 50 mg/kg) | Activity at the end of the 120 min observation period relative to S-Carphedon (male ICR mice [2]; i.p. 50 mg/kg) | Animal activity in open field test (in words) (male ICR mice [2]; i.p. 50 mg/kg, 120 min observation period) | ED50 (male ICR mice [3]) | ED50 (male ICR mice [4]) | ED50 (male ICR mice [5]) | ED50 (male ICR mice [6]) | Horizontal activity counts (male ICR mice [2]; 30 min after i.p. 50 mg/kg) | Horizontal activity counts (male ICR mice [2]; 120 min after i.p. 50 mg/kg)
1 | NC(=O)CN1C[C@@H](c2ccccc2)CC1=O [R-Carphedon, N-Carbamoylmethyl-4(R)-phenyl-2-pyrrolidinone] | did not spent any time immobile | 0^## sec | 15.5 ± 2.9 counts | 10.0 ± 1.5 counts | 16.4 ± 3.6 counts | 12.5 ± 3.2 counts | 17.8 ± 4.7 counts | 11.6 ± 4.0 counts | about two times higher | prolonged and stable increase in animal activity | 199 ± 38 mg/kg | 456 ± 122 mg/kg | 193 ± 26 mg/kg | 10 ± 42 mg/kg |  | 
2 | NC(=O)CN1C[C@H](c2ccccc2)CC1=O [S-Carphedon, N-Carbamoylmethyl-4(S)-phenyl-2-pyrrolidinone] | immobilization in response to stress factor | 110 ± 12 s |  | 7.0 ± 1.6 counts | 7.8 ± 4.2 counts | 7.0 ± 2.8 counts | 11.5 ± 2.8 counts | 4.9 ± 1.7 counts |  |  | 286 ± 78 mg/kg | 548 ± 75 mg/kg | 459 ± 87 mg/kg | 50 ± 63 mg/kg | 56.3 ± 5.7 counts | 36.4 ± 7.1 counts
